# According to patent publication US20220409580A1, “METHODS OF TREATING CONDITIONS RELATED TO THE S1P1 RECEPTOR” (Arena Pharmaceuticals, Inc., priority 2019, published 2022):
# Experiments:
# Assay type in all cases: in vivo, human
# lymphocyte count = test: Single-blind, placebo-controlled, randomized study of PK, PD, safety and tolerability: lymphocyte count
# Method: (§1) A single-blind (ie, subject only), placebo-controlled, randomized, fixed-sequence, parallel design study evaluated PK, PD, safety, and tolerability in healthy Japanese and Caucasian male subjects (data reported herein is based on the preliminary clinical study report). A total of 49 subjects were enrolled and received 1 or 2 mg of Compound 1 or placebo once daily for 7 days followed by an additional single dose on Day 15, administered 1 week after a treatment-free period. […] The median percent change from baseline at Day 7 was −23.61% in the Japanese 1 mg group, −25.79% in the Caucasian 1 mg group, −50.00% in the Japanese 2 mg group, and −43.67% in the Caucasian 2 mg group. The median percent change from baseline at Day 15 (pre-dose) was 0.00% in the Japanese 1 mg group, −21.43% in the Caucasian 1 mg group, −6.67% in the Japanese 2 mg group, and −16.23% in the Caucasian 2 mg group. In depth immunophenotyping was performed in healthy subjects.
# [1] = test system: circulating B cells, CD4+ TCM, CD4+ TN, Th17, Th2, CD8+ TCM, and CD8+TN cells; test: In depth immunophenotyping in healthy subjects (FIG. 3); settings: 1 or 2 mg once daily, peaked at Day 7 pre-dose
# Method: as §1
# UC = test: Phase 2 dose-ranging study in UC patients and open-label extension study; settings: UC patients
# Method: (§2) Compound 1, or a pharmaceutically acceptable salt, solvate, or hydrate thereof, is an orally administered, selective, synthetic sphingosine 1-phosphate (S1P) receptor 1, 4, 5 modulator. […] Its safety and tolerability have been evaluated in Phase 1 studies with healthy adult subjects at single doses up to 5 mg and repeated doses up to 4 mg once daily (QD).
# [2] = Safety and tolerability in adult subjects, including Phase 1 studies with healthy adult subjects; settings: approximately 281 adult subjects at various doses; single doses up to 5 mg, repeated doses up to 4 mg QD
# Method: as §2
compound,measurement,setting,value
"O=C(O)C[C@H]1CCc2c1[nH]c1ccc(OCc3ccc(C4CCCC4)c(C(F)(F)F)c3)cc21 [Compound 1, (R)-2-(7-(4-cyclopentyl-3-(trifluoromethyl)benzyloxy)-1,2,3,4-tetrahydrocyclopenta[b]indol-3-yl)acetic acid]",median percent change from baseline in lymphocyte count,"lymphocyte count; Day 7, Caucasian 1 mg group, once daily for 7 days, healthy male subjects",−25.79%
same,median percent change from baseline in lymphocyte count,"lymphocyte count; Day 7, Caucasian 2 mg group, once daily for 7 days, healthy male subjects",−43.67%
same,median percent change from baseline in lymphocyte count,"lymphocyte count; Day 7, Japanese 1 mg group, once daily for 7 days, healthy male subjects",−23.61%
same,median percent change from baseline in lymphocyte count,"lymphocyte count; Day 7, Japanese 2 mg group, once daily for 7 days, healthy male subjects",−50.00%
same,median percent change from baseline in lymphocyte count,"lymphocyte count; Day 15 (pre-dose), after 1 week treatment-free period, Caucasian 1 mg group",−21.43%
same,median percent change from baseline in lymphocyte count,"lymphocyte count; Day 15 (pre-dose), after 1 week treatment-free period, Caucasian 2 mg group",−16.23%
same,median percent change from baseline in lymphocyte count,"lymphocyte count; Day 15 (pre-dose), after 1 week treatment-free period, Japanese 1 mg group",0.00%
same,median percent change from baseline in lymphocyte count,"lymphocyte count; Day 15 (pre-dose), after 1 week treatment-free period, Japanese 2 mg group",−6.67%
same,median lymphocyte count,"lymphocyte count; all treatment groups, from first dose (Day 2) through end of repeated dosing period on Day 8",Progressive decreases
same,"total lymphocyte count, including Th2 T cells","lymphocyte count; healthy subjects, 1 or 2 mg once daily",dose-dependent decrease
same,"median number of circulating B cells, CD4+ TCM, CD4+ TN, Th17, Th2, CD8+ TCM, and CD8+TN cells",[1],dose-dependent decrease
same,endoscopic and symptomatic improvements versus placebo,UC; 2 mg QD for 12 weeks,clinically meaningful and statistically significant endoscopic and symptomatic improvements
same,beneficial effects in open-label extension study,UC; up to 46 weeks,Sustained beneficial effects
same,safety and tolerability,[2],safe and well-tolerated
